# Results from patent publication US9353082B2, “Pharmaceutical compounds” (BIAL—PORTELA & CA, S.A., priority 2008, dated 2016).
# Columns and labels:
# FAAH [1] = biological target: T1, FAAH (Rattus norvegicus, UniProt P97612); test: In vitro FAAH activity in rat brain membranes, 3H-AEA substrate, % of control; assay type: biochemical, Wistar rats; details: low value = strong inhibitor; for In Vitro FAAH activity, 100 nM: 100 nM test compound; for In Vitro 100 nM (FAAH activity, % of control): rat brain membranes, compound at 100 nM; for In Vitro FAAH activity, 10 uM: 10 uM test compound
# T1 construct: Frozen brains (without cerebellum) from Wistar rats were used; from tissue; host or cells: Wistar rat brain (without cerebellum), washed membrane pellets
# T1 sequence (P97612 1-579): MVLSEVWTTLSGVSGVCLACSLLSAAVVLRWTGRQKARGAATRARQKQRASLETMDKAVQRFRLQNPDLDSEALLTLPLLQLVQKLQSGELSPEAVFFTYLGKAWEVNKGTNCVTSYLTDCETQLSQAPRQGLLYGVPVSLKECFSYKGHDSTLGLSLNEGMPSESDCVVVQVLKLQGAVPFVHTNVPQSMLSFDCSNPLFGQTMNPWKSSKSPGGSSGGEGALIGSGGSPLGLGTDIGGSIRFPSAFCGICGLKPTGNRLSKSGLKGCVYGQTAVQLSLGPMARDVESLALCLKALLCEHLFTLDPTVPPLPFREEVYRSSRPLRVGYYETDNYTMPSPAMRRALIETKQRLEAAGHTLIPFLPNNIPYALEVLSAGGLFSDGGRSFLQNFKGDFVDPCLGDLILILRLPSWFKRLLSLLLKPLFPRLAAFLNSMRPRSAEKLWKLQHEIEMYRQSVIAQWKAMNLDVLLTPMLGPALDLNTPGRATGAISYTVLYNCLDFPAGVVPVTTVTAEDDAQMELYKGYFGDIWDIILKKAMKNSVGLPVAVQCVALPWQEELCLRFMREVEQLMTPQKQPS
# In short: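 Wistar rat brain membranes (5 μg protein) preincubated 15 min at 37 °C with compound at 10 μM or 0.1 μM (0.1% DMSO), then 2 μM AEA including 3H-AEA with 0.1% BSA, Tris pH 7.6, 10 min. 3H-ethanolamine counted after charcoal stop; % of no-compound control after blank subtraction.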
# FAAH [2] = biological target: T2, FAAH (Mus musculus, UniProt O08914); test: In vivo FAAH inhibition after oral dosing, remaining activity in brain homogenate (BRh, central nervous tissue); set-up: species or system NMRI mice; details: brain homogenate; for In Vivo BRh 3 mg·kg 8 h (remaining FAAH activity, % of control): 8 h after dosing, low value = strong inhibitor
# T2 construct: A fragment of liver, left lung lobe and brain without cerebellum were removed; from tissue; host or cells: male NMRI mice; brain (without cerebellum) and liver homogenates
# T2 sequence (O08914 1-579): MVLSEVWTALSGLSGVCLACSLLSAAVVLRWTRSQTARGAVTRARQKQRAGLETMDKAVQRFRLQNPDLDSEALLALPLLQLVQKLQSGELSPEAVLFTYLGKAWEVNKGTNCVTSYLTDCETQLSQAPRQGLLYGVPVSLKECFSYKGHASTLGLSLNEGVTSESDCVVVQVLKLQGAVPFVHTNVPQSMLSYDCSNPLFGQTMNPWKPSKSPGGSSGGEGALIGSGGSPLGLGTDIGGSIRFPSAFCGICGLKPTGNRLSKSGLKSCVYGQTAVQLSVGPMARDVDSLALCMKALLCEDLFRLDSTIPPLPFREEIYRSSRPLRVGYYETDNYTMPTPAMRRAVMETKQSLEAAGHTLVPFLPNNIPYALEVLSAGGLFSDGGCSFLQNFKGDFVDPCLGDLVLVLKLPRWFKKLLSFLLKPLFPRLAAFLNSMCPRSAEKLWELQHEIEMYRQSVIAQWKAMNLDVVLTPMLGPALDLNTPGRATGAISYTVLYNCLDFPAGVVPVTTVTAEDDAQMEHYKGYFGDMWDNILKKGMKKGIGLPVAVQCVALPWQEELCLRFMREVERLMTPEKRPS
# In short: (§1)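 Male NMRI mice, fasted overnight, got 30 or 3 mg/kg compound orally (0.5% CMC suspension or water) and were compared with vehicle controls. Brain (no cerebellum) and liver homogenates were incubated with 2 μM AEA plus 5 nM 3H-AEA at 37 °C, 10 min for brain and 7 min for liver. Remaining FAAH activity is % of vehicle after blank subtraction.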
# FAAH [3] = biological target: T2, FAAH; test: In vivo FAAH inhibition after oral dosing, remaining activity in liver homogenate (LVh, peripheral tissue); set-up: species or system NMRI mice; details: liver homogenate; for In Vivo LVh 3 mg·kg 8 h (remaining FAAH activity, % of control): 8 h after dosing, low value = strong inhibitor
# In short: as §1
SMILES,"In Vitro FAAH activity, 100 nM (FAAH [1])","In Vivo BRh 3 mg/kg 8 h, remaining FAAH activity (FAAH [2])","In Vivo LVh 3 mg/kg 8 h, remaining FAAH activity (FAAH [3])","In Vitro 100 nM (FAAH activity, % of control) (FAAH [1])","In Vivo BRh 3 mg·kg 8 h (remaining FAAH activity, % of control) (FAAH [2])","In Vivo LVh 3 mg·kg 8 h (remaining FAAH activity, % of control) (FAAH [3])","In Vivo BRh 30 mg/kg 1 h, remaining FAAH activity (FAAH [2])","In Vivo LVh 30 mg/kg 1 h, remaining FAAH activity (FAAH [3])","In Vitro FAAH activity, 10 uM (FAAH [1])"
"CN(CCCCCc1ccccc1)C(=O)n1nnc2ccccc21 [Compound 129, N-methyl-N-(5-phenylpentyl)-1H-benzo[d][1,2,3]triazole-1-carboxamide]",0 % of control,2.5 % of control,2 % of control,,,,,,
"O=C(N1CCC(Cc2ccccc2)CC1)n1cnc(-c2ccc(F)cc2F)n1 [Compound 79, (4-benzylpiperidin-1-yl)(3-(2,4-difluorophenyl)-1H-1,2,4-triazol-1-yl)methanone]",0.8 % of control,70 % of control,45.2 % of control,,,,10.3 % of control,9.8 % of control,
"O=C(N1CCOCC1)n1nnc2ccccc21 [Compound 19, (1H-benzo[d][1,2,3]triazol-1-yl)(morpholino)methanone]",3.1 % of control,,,,,,46.6 % of control,41.1 % of control,0.1 % of control
"O=C(N1CCC(CCCc2ccccc2)CC1)n1nnc2ccccc21 [Compound 110, (1H-benzo[d][1,2,3]triazol-1-yl)(4-(3-phenylpropyl)piperidin-1-yl)methanone]",0.1 % of control,51.7 % of control,10.2 % of control,,,,,,
"O=C(N1CCCc2ccccc21)n1cnc(-c2cccc(O)c2)c1 [Compound 51, (3,4-dihydroquinolin-1(2H)-yl)(4-(3-hydroxyphenyl)-1H-imidazol-1-yl)methanone]",100.8 % of control,130.4 % of control,132.3 % of control,,,,,,
"CN(C(=O)n1nnc2ccccc21)c1ccccc1 [Compound 34, N-methyl-N-phenyl-1H-benzo[d][1,2,3]triazole-1-carboxamide]",0.6 % of control,,,,,,33.6 % of control,34.3 % of control,0 % of control
"CN(C(=O)n1cnc(-c2ccc(N)cc2)c1)c1ccccc1 [Compound 199, 4-(4-aminophenyl)-N-methyl-N-phenyl-1H-imidazole-1-carboxamide]",89 % of control,45.9 % of control,19.7 % of control,,,,,,
"CN(C(=O)n1cnc(-c2cccc(O)c2)c1)c1ccccc1 [Compound 40, 4-(3-hydroxyphenyl)-N-methyl-N-phenyl-1H-imidazole-1-carboxamide]",88.8 % of control,102.8 % of control,25.6 % of control,,,,81.5 % of control,4.5 % of control,0.1 % of control

# The remaining lines, values ahead:
"In Vitro FAAH activity, 100 nM (FAAH [1])","In Vivo BRh 3 mg/kg 8 h, remaining FAAH activity (FAAH [2])","In Vivo LVh 3 mg/kg 8 h, remaining FAAH activity (FAAH [3])","In Vitro 100 nM (FAAH activity, % of control) (FAAH [1])","In Vivo BRh 3 mg·kg 8 h (remaining FAAH activity, % of control) (FAAH [2])","In Vivo LVh 3 mg·kg 8 h (remaining FAAH activity, % of control) (FAAH [3])","In Vivo BRh 30 mg/kg 1 h, remaining FAAH activity (FAAH [2])","In Vivo LVh 30 mg/kg 1 h, remaining FAAH activity (FAAH [3])","In Vitro FAAH activity, 10 uM (FAAH [1])",SMILES
,,,99.2 % of control,77.9 % of control,32.4 % of control,,,,"CC1(C)COCN1C(=O)n1cnc(-c2ccccc2)c1Cl [Compound 295, (5-chloro-4-phenyl-1H-imidazol-1-yl)(4,4-dimethyloxazolidin-3-yl)methanone]"
,,,95.6 % of control,7.1 % of control,11.7 % of control,,,,"COc1cc(-c2cn(C(=O)N3COCC3(C)C)cn2)ccc1F [Compound 351, (4,4-dimethyloxazolidin-3-yl)(4-(4-fluoro-3-methoxyphenyl)-1H-imidazol-1-yl)methanone]"
,,,56.2 % of control,137.6 % of control,10.1 % of control,,,,"CN(C(=O)n1cnc(-c2cccc(O)c2)c1)C1CCCCC1 [Compound 307, N-cyclohexyl-4-(3-hydroxyphenyl)-N-methyl-1H-imidazole-1-carboxamide]"
93.5 % of control,101.8 % of control,64.3 % of control,,,,,,,"CN(C(=O)n1cnc(-c2ccc(OCCN3CCNCC3)cc2)c1)c1ccccc1.Cl.Cl [Compound 203, N-methyl-N-phenyl-4-(4-(2-(piperazin-1-yl)ethoxy)phenyl)-1H-imidazole-1-carboxamide dihydrochloride]"
76.6 % of control,8.4 % of control,5.1 % of control,,,,,,,"CC1(C)COCN1C(=O)n1cnc(-c2cccnc2)c1.Cl.Cl [Compound 226, (4,4-dimethyloxazolidin-3-yl)(4-(pyridin-3-yl)-1H-imidazol-1-yl)methanone dihydrochloride]"
90.5 % of control,102.1 % of control,52.6 % of control,,,,,,,"CC(C)N(Cc1ccccc1)C(=O)n1cnc(-c2ccccc2)c1 [Compound 250, N-benzyl-N-isopropyl-4-phenyl-1H-imidazole-1-carboxamide]"
108.6 % of control,29.3 % of control,13.3 % of control,,,,,,38.3 % of control,"COc1ccc(-c2cn(C(=O)N3COCC3(C)C)cn2)cc1OC [Compound 216, (4-(3,4-dimethoxyphenyl)-1H-imidazol-1-yl)(4,4-dimethyloxazolidin-3-yl)methanone]"
,,,1.6 % of control,3.1 % of control,3.7 % of control,,,,"CC1(C)COCN1C(=O)n1nnc2c(F)cc(F)cc21 [Compound no. 360, (4,6-difluoro-1H-benzo[d][1,2,3]triazol-1-yl)(4,4-dimethyloxazolidin-3-yl)methanone]"
111.6 % of control,86.8 % of control,89 % of control,,,,,,50.6 % of control,"CC1(C)COCN1C(=O)n1cnc2ccccc21 [Compound 219, (1H-benzo[d]imidazol-1-yl)(4,4-dimethyloxazolidin-3-yl)methanone]"
